Test results reported in PMC6156078, “Thalidomide promotes degradation of SALL4, a transcription factor implicated in Duane Radial Ray syndrome” (eLife, 2018).

Assays:
[1] = tested on: ST14; assay: TMT proteomics MM1s cells: ST14 abundance; conditions: 5 h vs DMSO, lenalidomide 5 µM
[2] = tested on: DYNC1H1; assay: TMT proteomics Kelly cells: DYNC1H1 abundance; conditions: 5 h vs DMSO, lenalidomide 5 µM
[3] = tested on: HNRNPH1; assay: TMT proteomics H9 hESC: HNRNPH1 abundance; format: cell-based, human; conditions: H9 hES cells, 5 h vs DMSO; lenalidomide 5 µM
Source text: (§1) We established a mass spectrometry-based workflow (Figure 1—figure supplement 1A) to detect IMiD-induced protein degradation in hESC.
(§2) Proteins were precipitated using methanol/chloroform.

[4] = typical dose 200–400 mg thalidomide, 25 mg lenalidomide, 2 mg pomalidomide; ref Chen et al., 2017; Hoffmann et al., 2013; Teo et al., 2004; cited from earlier work
[5] = tested on: HADHA; assay: TMT proteomics MM1s cells: HADHA abundance; conditions: 5 h vs DMSO, lenalidomide 5 µM
[6] = tested on: OGDH; assay: TMT proteomics MM1s cells: OGDH abundance; conditions: 5 h vs DMSO, lenalidomide 5 µM
[7] = tested on: IMiD-dependent neo-substrates; assay: TMT proteomics profiling of IMiD-dependent neo-substrates (hESC, Kelly, SK-N-DZ, MM1s); format: cell-based, human
Source text: as §1, §2

[8] = tested on: PPA1; assay: TMT proteomics H9 hESC: PPA1 abundance; format: cell-based, human; conditions: H9 hES cells, 5 h vs DMSO; thalidomide 10 µM, lenalidomide 5 µM
Source text: as §1, §2

## Nc1cccc2c1CN(C1CCC(=O)NC1=O)C2=O (stereo not shown) [lenalidomide]
[1]
  logFC ST14: -0.1872
[2]
  logFC DYNC1H1: 0.04048
[3]
  logFC HNRNPH1: 0.1553
[4]
  plasma half-life (t1/2): ~ 3 h
[5]
  logFC HADHA: 0.1826
[6]
  logFC OGDH: 0.1359
[7]; H9 hESC proteomics
  number of substrates identified (rank order): Thal < Len << Pom
[7]; H9 hESC, 5 h, 5 µM lenalidomide, 1 µM pomalidomide
  proteins degraded upon treatment (besides SALL4): CSNK1A1
[7]; proteomics across hESC, MM1s, Kelly, SK-N-DZ cells
  substrates robustly degraded (each drug in addition to the preceding one): ZNF827, FAM83F, and RAB28 along with the lenalidomide-specific substrate CSNK1A1
[8]
  logFC PPA1: -0.1919
